Test results taken from BigSolDB 2.1.

CC(C)C(=O)Nc1ccc([N+](=O)[O-])c(C(F)(F)F)c1
solubility (mole fraction)
Settings | 278.15 K | 283.15 K | 288.15 K | 293.15 K | 298.15 K | 303.15 K | 308.15 K | 313.15 K | 318.15 K | 323.15 K
in 2-ethoxyethanol | 0.132 | 0.142 | 0.153 | 0.164 | 0.176 | 0.19 | 0.204 | 0.22 | 0.237 | 0.258
in 2-methoxyethanol | 0.121 | 0.13 | 0.142 | 0.153 | 0.166 | 0.18 | 0.195 | 0.212 | 0.229 | 0.25
in DMF | 0.382 | 0.391 | 0.401 | 0.41 | 0.421 | 0.433 | 0.447 | 0.462 | 0.476 | 0.494
in DMSO | – | – | – | 0.433 | 0.443 | 0.455 | 0.469 | 0.481 | 0.496 | 0.512
in acetone | 0.162 | 0.173 | 0.185 | 0.196 | 0.209 | 0.223 | 0.238 | 0.255 | 0.273 | 0.293
in dichloromethane | 0.00732 | 0.00924 | 0.0117 | 0.0143 | 0.0182 | 0.0223 | 0.0273 | – | – | –
in ethanol | 0.0336 | 0.0406 | 0.0503 | 0.0586 | 0.0699 | 0.083 | 0.0979 | 0.116 | 0.135 | 0.158
in ethyl acetate | 0.0998 | 0.109 | 0.119 | 0.131 | 0.143 | 0.156 | 0.17 | 0.187 | 0.205 | 0.225
in ethylene glycol | 0.00089 | 0.00116 | 0.0015 | 0.00195 | 0.00241 | 0.00308 | 0.0039 | 0.00491 | 0.0061 | 0.00758
in methanol | 0.0296 | 0.0362 | 0.0446 | 0.0532 | 0.065 | 0.078 | 0.0933 | 0.11 | 0.131 | 0.153
in methyl acetate | 0.0945 | 0.103 | 0.113 | 0.123 | 0.135 | 0.144 | 0.16 | 0.175 | 0.192 | 0.21
